# Source: patent US7718161B2, “Method for treating a motoneuron disorder” (UCB Pharma GmbH, priority 2004, dated 2010)
# “Also recorded” adds a separate entry of the source.
# What was measured:
# SOD mutant mice [1] = experiment: Hanging test in SOD mutant mice; assay type: in vivo, mouse; details: twice daily intraperitoneally from day 60
# Experimental: (§1) The transgenic mouse strain used for this study is G1H (Gurney et al., 1994). The animals begin to show signs of posterior limb weakness at around 3 months of age and die at 4 months.
# (§2) 40 mice are included in the study and divided into 4 groups of 10 mice. • a SOD vehicle group • a SOD treated group (SPM 927 3 mg/kg) • a SOD treated group (SPM 927 10 mg/kg) • a SOD treated group (SPM 927 30 mg/kg)
# (§3) • Rotarod test: this test evaluates the ability of the animal to stay on a rotating dowel allowing evaluation of motor coordination and proprioceptive sensitivity. The apparatus is a 3 cm diameter automated rod which turns at 12 rounds per minute (Bioseb, Paris, France). The rotarod test measures how long the mouse can maintain itself on the axle without falling. The test is stopped after an arbitrary limit of 120 s. Should the animal fall down before 120 s, the performance is recorded and two additional trials are performed. The mean time of 3 trials is calculated. […] The number of times the mice put their paws through the grid is counted and serves as a measure for motor coordination. • Hanging test: this test evaluates the ability of the animal to hang on a wire. […] The time needed by the animal to catch the string with its hindpaws is recorded (60 s maximum) during three consecutive trials. […]
# SOD mutant mice [2] = experiment: Electromyographic recordings (compound muscle action potential) in SOD mutant mice; assay type: in vivo, mouse
# Experimental: as §1, §2
# (§4) Animals were weighed every day. The general status of the mice was checked daily, especially for the presence of tremor, for skin aspect and for muscle wasting. EMG testing was performed once every week, starting on D70 of age until the death of the animals. The survival rate and the interval from symptom onset until death were recorded.
# Electromyographic recordings were performed using a Neuromatic 2000M electromyography apparatus. During EMG the mice are anesthetized (60 mg kg-1, Imalgène®). The measured parameters are the amplitude and the latency of the compound muscle action potential (CMAP). CMAP is measured in gastrocnemius muscle after stimulation of the sciatic nerve. A reference electrode is inserted near the Achilles tendon and an active needle placed at the base of the tail. A ground needle is inserted on the lower back of the mouse. […] The amplitude (mV) and the latency of the response (ms) are measured. […]
# SOD mutant mice [3] = experiment: Grid test in SOD mutant mice; assay type: in vivo, mouse
# Experimental: as §1, §2, §3
# SOD mutant mice [4] = experiment: Rotarod test in SOD mutant mice; assay type: in vivo, mouse; details: twice daily intraperitoneally from day 60
# Experimental: as §1, §2, §3
# SOD mutant mice [5] = experiment: Survival in the SOD mutant mouse model of ALS; assay type: in vivo
# Experimental: The present study investigates the effects of SPM 927 to protect or to reduce impairments observed in this ALS model. For this purpose behavioral measurements and EMGs are performed in SOD-G93A mice overexpressing mutant human Cu, Zn SOD.
# as §1, §2, §4
# The animals were treated from day 60 (before the beginning of the clinical signs) until the animal's death. The treatment was administered twice daily intraperitoneally.
# A global analysis of the data was made using one factor or repeated measures analysis of variance (ANOVA). […]
# [6] = twice daily intraperitoneally from day 60, dose not given
substance,measurement,setting,value
(R)-2-acetamide-N-benzyl-3-methoxypropionamide [SPM 927],motor symptoms in the hanging test,SOD mutant mice [1],alleviates motor symptoms
same,motor impairment (latency of compound muscle action potential),"SOD mutant mice [2]; FIG. 3, 10 mg/kg, twice daily intraperitoneally",attenuates motor impairment
same,EMG abnormalities,SOD mutant mice [2]; [6],attenuates motor symptoms including abnormalities in electrophysiological recordings (EMG)
same,motor impairment (grid performance),"SOD mutant mice [3]; FIG. 2, 30 mg/kg, twice daily intraperitoneally",attenuates motor impairment
same,motor symptoms in the grid test,SOD mutant mice [3]; [6],alleviates motor symptoms
same,motor symptoms in the rotarod test,SOD mutant mice [4],alleviates motor symptoms
same,life-span of SOD mutant mice,"SOD mutant mice [5]; FIG. 1, 3, 10, 30 mg/kg twice daily intraperitoneally from day 60 until death",dose dependently prolongs life-span
same,survival time after onset of symptoms,"SOD mutant mice [5]; chronic treatment twice daily intraperitoneally from day 60, G1H SOD-G93A mice",prolongs survival time after symptom onset; also recorded: prolongs survival time after onset of symptoms
